In the OPERA property sets (Mansouri et al. 2018):

logP	Structure (SMILES)
3.6	CC=NN(C(=O)c1ccc(C)cc1)c1ccccc1
3	Cc1ccc(C(=O)N(N)c2ccccc2)cc1
2.47	CN(NC(=S)Nc1ccccc1)C(=O)c1ccccc1
3.73	O=C(c1ccccc1)N(NC(=S)Nc1ccccc1)c1ccccc1
3.08	CC=NN(C(=O)c1ccc([N+](=O)[O-])cc1)c1ccccc1
4.08	Cc1ccc(C(=O)N(NC(=S)Nc2ccccc2)c2ccccc2)cc1
2.83	COc1ccc(C(=O)N(N)c2ccccc2)cc1
3.18	CC=NN(C(=O)c1ccc(OC)cc1)c1ccccc1
2.76	CC=NN(C(=O)c1ccccc1)c1ccccc1
2.3	NN(C(=O)c1ccccc1)c1ccccc1

Further lines, the compound ahead of its results:

Structure (SMILES)	logP
COc1ccc(C(=O)N(NC(=S)Nc2ccccc2)c2ccccc2)cc1	3.94
O=C(c1ccc([N+](=O)[O-])cc1)N(NC(=S)Nc1ccccc1)c1ccccc1	3.87
Cc1ccc(C(=O)N(C)N)cc1	1.36
COc1ccc(C(=O)N(C)NC(=S)Nc2ccccc2)cc1	2.56
Cc1ccc(C(=O)N(C)NC(=S)Nc2ccccc2)cc1	3.01
NN(C(=O)c1ccc([N+](=O)[O-])cc1)c1ccccc1	2.48
CN(N)C(=O)c1ccc([N+](=O)[O-])cc1	0.75
COc1ccc(C(=O)N(C)N)cc1	1
CN(NC(=S)Nc1ccccc1)C(=O)c1ccc([N+](=O)[O-])cc1	2.68
CN(N)C(=O)c1ccccc1	0.7
